Earlier results in patent publication US4761398A, “Method of inducing birds to molt” (Embrex, Inc., priority 1986, dated 1988).
Where no end group is shown, it is not given here.

How the values were obtained:
LHRH receptor [1] = molecular target: T1, LHRH receptor (Homo sapiens, UniProt P30968); settings: Nestor et al., cited from earlier work; for potency relative to LHRH: 6-substituted analogs
T1 sequence (P30968 1-328): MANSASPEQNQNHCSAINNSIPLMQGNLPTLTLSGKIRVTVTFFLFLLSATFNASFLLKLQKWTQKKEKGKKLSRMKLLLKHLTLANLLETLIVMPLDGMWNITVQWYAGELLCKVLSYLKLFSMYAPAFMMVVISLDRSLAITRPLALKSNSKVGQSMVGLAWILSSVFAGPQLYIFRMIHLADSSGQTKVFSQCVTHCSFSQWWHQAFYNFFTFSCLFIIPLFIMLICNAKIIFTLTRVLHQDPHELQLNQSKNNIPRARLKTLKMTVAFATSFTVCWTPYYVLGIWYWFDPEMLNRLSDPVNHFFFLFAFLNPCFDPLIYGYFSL

LHRH receptor [2] = molecular target: T1, LHRH receptor; settings: literature review; cited from earlier work

| Substance | potency relative to LHRH (LHRH receptor [1]) | antagonistic activity (LHRH receptor [2]) | also measured |
| --- | --- | --- | --- |
| [D-Mtf^6 ]LHRH | more potent than LHRH |  |  |
| [D-Dca^6 ]LHRH | more potent than LHRH |  | agonistic activity in words (LHRH receptor [1]): activity dropped off |
| [D-Nal(2)^6 ], aza-Gly^10 ]LHRH |  |  | agonistic activity in words (LHRH receptor [1]): one of the most potent LHRH agonists known |
| Leu^3 -LHRH (QHLSYGLRPG; ends and bridges not checked; UniProt P01148 24-33, looked up, variant W3L) |  | some antagonistic activity |  |
| [D-Nal(2)^6 ]LHRH | more potent than LHRH |  |  |
| [D-Tmo^6 ]LHRH | more potent than LHRH |  |  |
| [D-Pfp^6 ]LHRH | more potent than LHRH |  |  |
| [D-ptf^6 ]LHRH | more potent than LHRH |  |  |
| [desHis^2, D-Ala^6, desGly^10 ] LHRHEA |  | found to have antagonistic activity | agonistic activity of antagonist analogs (LHRH receptor [2]): showed some agonistic activity |
| [D-Nal(1)^6 ]LHRH | more potent than LHRH |  |  |
| [desHis^2, desGly^10 ] LHRHEA |  | significant antagonistic activity |  |
| [desHis^2, Leu^3, D-Ala^6, desGly^10 ] LHRHEA |  | found to have antagonistic activity | agonistic activity of antagonist analogs (LHRH receptor [2]): showed some agonistic activity |
| [D-Tmp^6 ]LHRH | more potent than LHRH |  |  |
| [D-Trp^6, Pro^9 -NHEt]LHRH | more potent than LHRH |  |  |
| [desHis^2, D-Phe^6 ]LHRH |  | increased antagonistic activity |  |
| [desHis^2, D-Ala^6 ] LHRH |  | found to have antagonistic activity |  |
| [desHis^2, Leu^3, desGly^10 ] LHRHEA |  | found to have antagonistic activity |  |
| [D-Cha^6 ]LHRH | more potent than LHRH |  |  |
